# Measured values reported in publication PMC6691788, “Design and synthesis of phthalazine-based compounds as potent anticancer agents with potential antiangiogenic activity via VEGFR-2 inhibition” (Journal of Enzyme Inhibition and Medicinal Chemistry, 2019).
# Assays:
# [1] = system: SNB-19; test: NCI 60 cell panel SRB screen; type: cell-based; conditions: Homo sapiens
# [2] = system: DU-145; test: NCI 60 cell panel SRB screen; type: cell-based; conditions: Homo sapiens
# [3] = system: UACC-62; test: NCI 60 cell panel SRB screen; type: cell-based
# [4] = system: HCT-116; test: NCI 60 cell panel SRB screen; type: cell-based; conditions: Homo sapiens
# [5] = system: SK-MEL-5; test: NCI 60 cell panel SRB screen; type: cell-based; conditions: Homo sapiens
# [6] = system: MDA-MB-435; test: NCI 60 cell panel SRB screen; type: cell-based; conditions: Homo sapiens
# [7] = system: HOP-62; test: NCI 60 cell panel SRB screen; type: cell-based; conditions: Homo sapiens
# [8] = system: U251; test: NCI 60 cell panel SRB screen; type: cell-based; conditions: Homo sapiens, U-251
# [9] = system: MDA-MB 231/ATCC; test: NCI 60 cell panel SRB screen; type: cell-based; conditions: Homo sapiens
# [10] = system: HCT-15; test: NCI 60 cell panel SRB screen; type: cell-based; conditions: Homo sapiens
# [11] = system: CAKI-1; test: NCI 60 cell panel SRB screen; type: cell-based, human; conditions: Homo sapiens; CAKI-1, single dose 10 μM; read-out: percent cell growth promotion
# [12] = system: A498; test: NCI 60 cell panel SRB screen; type: cell-based; conditions: Homo sapiens
# [13] = system: full NCI 60 cell panel; test: NCI 60 cell panel SRB screen, whole panel; type: cell-based, human; conditions: Homo sapiens, 60 cell
# Source text: Aiming to evaluate the general antitumour activity of the synthesised phthalazines, the structures of the final compounds were submitted to National Cancer Institute “NCI” (www.dtp.nci.nih.gov), Bethesda, Maryland, USA. In vitro NCI anticancer screening involves two-stage process, the first stage started with the evaluation of the selected candidates against the full NCI 60 cell lines panel representing leukaemia, non-small cell lung cancer, melanoma, colon, CNS, breast, ovarian, renal and prostate cancers at a single dose of 10 µM. NCI selection is based on degree of structure variation and application of computer modelling techniques to prioritise compounds based on their ability to add diversity to the NCI small molecule compound collection.
# Eight compounds (6b, 6e, 7b, 13a, 13c, 16a, 16d and 17a) were selected by NCI for further 5 log dose screening against full NCI 60 cell panel. All the 60 cell lines, representing nine tumour subpanels (leukaemia, non-small cell lung cancer, colon cancer, CNS cancer, prostate cancer, melanoma, ovarian cancer, renal cancer and breast cancer) which were incubated at five different concentrations (0.01, 0.1, 1, 10 and 100 µM) of each of the test compounds. The outcomes were used to create log concentration vs % growth inhibition curves, then three response parameters (GI50, TGI and LC50) were calculated for each cell line, (Tables S4 and S5 in Supplementary material).
# The human tumor cell lines of the cancer-screening panel were grown in RPMI 1640 medium containing 5% fetal bovine serum and […] L-glutamine. For a typical screening experiment, cells are inoculated into 96 well microtiter plates in 100 ml at plating densities ranging from 5000 to 40,000 cells/well depending on the doubling time of individual cell lines. After cell inoculation, the microtiter plates are incubated at 37 °C, 5% CO2, 95% air and 100%
# relative humidity for 24 h prior to addition of experimental drugs. After 24 h, two plates of each cell line are fixed in situ with TCA, to represent a measurement of the cell population for each cell line at the time of drug addition (Tz). Experimental drugs are dissolved in dimethyl sulfoxide at 400-fold the desired final maximum test concentration and stored frozen prior to use. At the time of drug addition, an aliquot of frozen concentrate is thawed and diluted to twice the desired final maximum test concentration with complete medium containing […] Gentamicin. Additional four, 10-fold or ½log serial dilutions are made to provide a total of five drug concentrations plus control. Aliquots of […] of these different drug dilutions are added to the appropriate microtiter wells already containing 100 ml of medium, resulting in the required final drug concentrations. Following drug addition, the plates are incubated for an additional 48 h at 37 °C, 5% CO2, 95% air, and 100% relative humidity. For adherent cells, the assay is terminated by the addition of cold TCA. Cells are fixed in situ by the gentle addition of […] of cold 50% (w/v) TCA (final concentration,10% TCA) and incubated for 60 min at 4 °C. The supernatant is discarded, and the plates are washed five times with tap water and air dried. Sulforhodamine B (SRB) solution (100 ml) at 0.4% (w/v) in 1% acetic acid is added to each well, and plates are incubated for 10 min at room temperature. After staining, unbound dye is removed by washing five times with 1% acetic acid and the plates are air dried. Bound stain is subsequently dissolved with 10 μM trizma base, and the absorbance is read on an automated plate reader at a wavelength of 515 nm. For suspension cells, the methodology is the same except that the assay is terminated by fixing settled cells at the bottom of the wells by gently adding […] of 80% TCA (final concentration, 16% TCA). […]
# [14] = system: SF-295; test: NCI 60 cell panel SRB screen; type: cell-based; conditions: Homo sapiens
# [15] = system: SN12C; test: NCI 60 cell panel SRB screen; type: cell-based; conditions: Homo sapiens
# [16] = system: ACHN; test: NCI 60 cell panel SRB screen; type: cell-based; conditions: Homo sapiens
# [17] = system: M14; test: NCI 60 cell panel SRB screen; type: cell-based; conditions: Homo sapiens
# [18] = system: HS 578T; test: NCI 60 cell panel SRB screen; type: cell-based; conditions: Homo sapiens
# [19] = system: MCF7; test: NCI 60 cell panel SRB screen; type: cell-based; conditions: Homo sapiens
# [20] = 5 log dose, 48 h, read-out: LC50 (the source's name)
# [21] = single dose 10 μM, read-out: percent cell growth promotion
structure (smiles),measurement,setting,value
"Clc1ccc(Nc2nnc(COc3ccccc3)c3ccccc23)cc1 [Compound 17a, N-(4-Chlorophenyl)-4-(phenoxymethyl)phthalazin-1-amine]",GI50,"[1]; SNB-19, 5 log dose",3.2 µM
same,IC (TGI),"[1]; SNB-19, 5 log dose",12 µM
same,CC50,"[1]; SNB-19, 5 log dose, 48 h, read-out: LC50 (the source's name)",> 25 µM
same,activity at 10 µM,"[1]; SNB-19, single dose 10 μM, read-out: percent cell growth promotion",21.9%
same,GI50,"[2]; DU-145, 5 log dose",2.65 µM
same,IC (TGI),"[2]; DU-145, 5 log dose",10.5 µM
same,CC50,"[2]; DU-145, 5 log dose, 48 h, read-out: LC50 (the source's name)",> 25 µM
same,activity at 10 µM,"[2]; DU-145, single dose 10 μM, read-out: percent cell growth promotion",10.4%
same,GI50,"[3]; Homo sapiens, UACC-62",1.24 µM
same,activity at 10 µM,"[3]; Homo sapiens, UACC-62, read-out: percent cell growth promotion",-27.7%
same,CC50,"[3]; Homo sapiens, UACC-62, 5 log dose, 48 h, read-out: LC50 (the source's name)",17.5 µM
same,TGI,"[3]; UACC-62, 5 log dose",5.69 µM
same,GI50,"[4]; HCT-116, 5 log dose",1.07 µM
same,IC (TGI),"[4]; HCT-116, 5 log dose",4.83 µM
same,LC50 (lethal concentration 50%),"[4]; HCT-116, 5 log dose, 48 h",13.1 µM
same,activity at 10 µM,"[4]; HCT-116, single dose 10 μM, read-out: percent cell growth promotion",1.21%
same,GI50,[5]; SK-MEL-5,1.08 µM
same,IC (TGI),"[5]; SK-MEL-5, read-out: TGI",4.56 µM
same,activity at 10 µM,"[5]; SK-MEL-5, read-out: percent cell growth promotion",-96.1%
same,CC50,"[5]; SK-MEL-5, 5 log dose, 48 h, read-out: LC50 (the source's name)",10.8 µM
same,GI50,[6]; MDA-MB-435,1.01 µM
same,IC (TGI),"[6]; MDA-MB-435, read-out: TGI",5.31 µM
same,activity at 10 µM,"[6]; MDA-MB-435, read-out: percent cell growth promotion",-3.33%
same,CC50,"[6]; MDA-MB-435, 5 log dose, 48 h, read-out: LC50 (the source's name)",16.2 µM
same,GI50,"[7]; HOP-62, 5 log dose",2.51 µM
same,IC (TGI),"[7]; HOP-62, 5 log dose",7.74 µM
same,CC50,"[7]; HOP-62, 5 log dose, 48 h, read-out: LC50 (the source's name)",23.9 µM
same,activity at 10 µM,"[7]; HOP-62, single dose 10 μM, read-out: percent cell growth promotion",13.1%
same,GI50,"[8]; U251, 5 log dose",1.24 µM
same,IC (TGI),"[8]; U251, 5 log dose",7.47 µM
same,CC50,"[8]; U251, 5 log dose, 48 h, read-out: LC50 (the source's name)",19.1 µM
same,activity at 10 µM,"[8]; U251, single dose 10 μM, read-out: percent cell growth promotion",-12.7%
same,GI50,[9]; MDA-MB-231,1.28 µM
same,IC (TGI),"[9]; MDA-MB-231, read-out: TGI",6.9 µM
same,activity at 10 µM,"[9]; MDA-MB-231, read-out: percent cell growth promotion",11.4%
same,CC50,"[9]; MDA-MB-231, MDA-MDA 231/ATCC, 5 log dose, 48 h, read-out: LC50 (the source's name)",24.8 µM
same,GI50,"[10]; HCT-15, 5 log dose",2.05 µM
same,IC (TGI),"[10]; HCT-15, 5 log dose",6.75 µM
same,CC50,"[10]; HCT-15, 5 log dose, 48 h, read-out: LC50 (the source's name)",19.7 µM
same,activity at 10 µM,"[10]; HCT-15, single dose 10 μM, read-out: percent cell growth promotion",4.45%
same,activity at 10 µM,[11],15.4%
same,GI50,"[12]; A498, 5 log dose",0.68 µM
same,IC (TGI),"[12]; A498, 5 log dose",3.64 µM
same,CC50,"[12]; A498, 5 log dose, 48 h, read-out: LC50 (the source's name)",10.6 µM
same,activity at 10 µM,"[12]; A498, single dose 10 μM, read-out: percent cell growth promotion",-17.3%
same,activity at 10 µM,"[13]; mean over the panel, single dose 10 μM, read-out: Mean percent cell growth promotion",-4.07%
same,inhibition at 10 µM,"[13]; single dose 10 µM, read-out: cell growth inhibition against various cell lines",> 90%
same,GI50,"[14]; SF-295, 5 log dose",1.65 µM
same,IC (TGI),"[14]; SF-295, 5 log dose",6.7 µM
same,CC50,"[14]; SF-295, 5 log dose, 48 h, read-out: LC50 (the source's name)",20.5 µM
same,activity at 10 µM,"[14]; SF-295, single dose 10 μM, read-out: percent cell growth promotion",-1.11%
same,GI50,[15]; 5 log dose,2.12 µM
same,IC (TGI),[15]; 5 log dose,8.07 µM
same,CC50,[15]; [20],> 25 µM
same,activity at 10 µM,[15]; [21],17%
same,GI50,[16]; 5 log dose,2.35 µM
same,IC (TGI),[16]; 5 log dose,> 25 µM
same,CC50,[16]; [20],> 25 µM
same,activity at 10 µM,[16]; [21],3.37%
same,GI50,[17]; M14,0.91 µM
same,IC (TGI),"[17]; M14, read-out: TGI",5.03 µM
same,activity at 10 µM,"[17]; M14, read-out: percent cell growth promotion",-9.99%
same,CC50,"[17]; M14, 5 log dose, 48 h, read-out: LC50 (the source's name)",15.2 µM
same,GI50,[18]; Hs-578T,2.58 µM
same,IC (TGI),"[18]; Hs-578T, read-out: TGI",10.5 µM
same,activity at 10 µM,"[18]; Hs-578T, read-out: percent cell growth promotion",14.4%
same,CC50,"[18]; HS 578T, 5 log dose, 48 h, read-out: LC50 (the source's name)",> 25 µM
same,GI50,[19]; MCF7,1.18 µM
same,IC (TGI),"[19]; MCF7, read-out: TGI",6.07 µM
same,activity at 10 µM,"[19]; MCF7, read-out: percent cell growth promotion",1.31%
same,CC50,"[19]; MCF7, 5 log dose, 48 h, read-out: LC50 (the source's name)",19.8 µM
